In patent US20200115357A1, “LIVER X RECEPTORS (LXR) MODULATORS” (Phenex-FXR GmbH, priority 2017, published 2020):

Tests used:
[1] = target: T1, LXRβ full length (FL) (Homo sapiens, UniProt P55055, DUP175-175); test: LXR Gal4 reporter transient transfection assay (M2H), Gal4β FL; type: cell-based; details: HEK293 cells; read-out: M2H Gal4β FL activity range (EC50)
T1 construct: the full length (FL) proteins of LXRα (amino acids 1-447); NP005684; NP009052; expressed in transfected cells; host or cells: HEK293
T1 sequence (P55055 with tags, fused parts or gaps DUP175-175): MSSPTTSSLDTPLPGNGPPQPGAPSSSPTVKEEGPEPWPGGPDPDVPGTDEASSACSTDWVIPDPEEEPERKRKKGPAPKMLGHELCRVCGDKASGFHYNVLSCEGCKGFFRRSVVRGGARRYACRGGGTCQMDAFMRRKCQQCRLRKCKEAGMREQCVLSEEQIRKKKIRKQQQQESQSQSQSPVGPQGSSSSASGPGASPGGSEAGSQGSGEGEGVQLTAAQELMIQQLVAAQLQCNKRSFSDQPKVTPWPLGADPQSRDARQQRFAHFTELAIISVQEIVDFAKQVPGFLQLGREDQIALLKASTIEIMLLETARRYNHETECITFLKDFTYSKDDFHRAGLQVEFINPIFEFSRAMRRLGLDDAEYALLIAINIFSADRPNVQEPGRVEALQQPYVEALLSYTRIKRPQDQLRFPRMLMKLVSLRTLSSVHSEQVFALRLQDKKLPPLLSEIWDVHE
Method in brief: (§1)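 Mammalian two-hybrid in HEK293 cells transiently transfected with LXRα/β full-length or LBD fused to NFkB activation domain, plus GAL4-DBD fusions of SRC1 coactivator or NCoR corepressor domains and a GAL4-responsive firefly luciferase reporter. Compounds added 4 h post-transfection (vehicle ≤0.2% DMSO), 16 h incubation; firefly luciferase normalized to Renilla.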

[2] = Pharmacokinetics in mice, blood and liver exposure via LC-MS; type: in vivo; details: for target tissue liver reached (in words): mice, systemic exposure minimized; for liver/blood ratio, 4 h / blood exposure, 4 h / liver exposure, 4 h: Dose (mg) 20, C57BL/6J mice; for blood exposure, 4 h / liver exposure, 4 h: 4 h after administration
Protocol: The pharmacokinetics of different sulfonamides was assessed in mice after single dosing and oral and intraperitoneal administrations. Blood and liver exposure was measured via LC-MS.
The study design was as follows:
Animals: C57BL/6J (Janvier) males
Diet: standard rodent chow
Vehicle for i.p. injection: 0.5% HPMC (w:v) in water, injection volume: <5 mL/kg
Animal handling: animals were withdrawn from food at least 12 h before administration
Design: single dose oral and bid ip administration, n=3 animals per group
Sacrifice: at t=4 h after administration
Bioanalytics: LC-MS of liver and blood samples

[3] = target: T2, LXRα full length (FL) (Homo sapiens, UniProt Q13133); test: LXR Gal4 reporter transient transfection assay (M2H), Gal4α FL; type: cell-based; details: HEK293 cells; read-out: M2H Gal4α FL activity range (EC50)
T2 construct: the full length (FL) proteins of LXRα (amino acids 1-447); NP005684; expressed in transfected cells; host or cells: HEK293
T2 sequence (Q13133 1-447): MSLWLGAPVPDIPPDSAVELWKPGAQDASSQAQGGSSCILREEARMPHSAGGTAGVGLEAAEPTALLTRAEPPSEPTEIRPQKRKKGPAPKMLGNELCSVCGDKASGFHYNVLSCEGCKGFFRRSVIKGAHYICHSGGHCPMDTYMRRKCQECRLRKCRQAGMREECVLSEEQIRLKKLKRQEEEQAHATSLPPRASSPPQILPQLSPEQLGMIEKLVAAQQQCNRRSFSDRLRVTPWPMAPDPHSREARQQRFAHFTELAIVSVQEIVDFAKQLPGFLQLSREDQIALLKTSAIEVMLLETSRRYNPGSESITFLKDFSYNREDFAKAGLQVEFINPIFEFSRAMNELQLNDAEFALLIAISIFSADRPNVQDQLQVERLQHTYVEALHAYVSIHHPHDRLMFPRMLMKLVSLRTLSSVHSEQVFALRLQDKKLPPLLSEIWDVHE
Method in brief: as §1

| SMILES | EC50 [1] [µM] | target tissue liver reached (in words) [2] | liver/blood ratio, 4 h ([2]; po) | blood exposure, 4 h ([2]; po) | liver exposure, 4 h ([2]; po) | EC50 [3] [µM] | liver/blood ratio, 4 h ([2]; ip) | blood exposure, 4 h ([2]; ip) | liver exposure, 4 h ([2]; ip) |
| --- | --- | --- | --- | --- | --- | --- | --- | --- | --- |
| Cc1cc(C)c(S(=O)(=O)N(Cc2ccc(C(F)(F)F)o2)Cc2ccc(-c3cccc(C(C)(C)C(=O)O)c3)cc2Cl)c(C)c1 [10/5] | < 0.1 | effectively reached | po: 21 | po: 242 ng/mL | po: 5120 ng/mL | < 0.1 |  |  |  |
| Cc1cc(C)c(S(=O)(=O)N(Cc2ccc(-c3cccc(S(=O)(=O)CC(=O)O)c3)cc2)Cc2ccc(C(F)(F)F)o2)c(C)c1 [Example 5, 2-((4′-(((2,4,6-Trimethyl-N-((5-(trifluoromethyl)furan-2-yl)methyl)phenyl)sulfonamido)methyl)-[1,1′-biphenyl]-3-yl)sulfonyl)acetic acid] | 0.1 to 1 | effectively reached | po: 31 | po: 0.15 μM | po: 4.6 μM | 1 to 10 | ip: 27 | ip: 0.34 μM | ip: 9.3 μM |
| Cc1cc(C)c(S(=O)(=O)N(Cc2ccc(-c3cccc(CC(=O)O)c3)cc2)Cc2ccc(C(F)(F)F)o2)c(C)c1 [Example 2, 2-(4′-(((2,4,6-Trimethyl-N-((5-(trifluoromethyl)furan-2-yl)methyl)phenyl)sulfonamido)methyl)-[1,1′-biphenyl]-3-yl)acetic acid] | < 0.1 |  |  |  |  | < 0.1 |  |  |  |
| Cc1ccc2ccccc2c1S(=O)(=O)N(Cc1ccc(-c2cccc(C(C)(C)C(=O)O)c2)cc1)Cc1ccc(C(F)(F)F)o1 [Example 24, 2-Methyl-2-(4′-(((2-methyl-N-((5-(trifluoromethyl)furan-2-yl)methyl)naphthalene)-1-sulfonamido)methyl)-[1,1′-biphenyl]-3-yl)propanoic acid] | < 0.1 | effectively reached | po: 25 | po: 231 ng/mL | po: 5882 ng/mL | < 0.1 |  |  |  |
| Cc1ccc2ccccc2c1S(=O)(=O)N(Cc1ccc(-c2cccc(S(=O)(=O)CC(=O)O)c2)cc1)Cc1cccc(C(F)(F)F)c1 [11/19] | 0.1 to 1 | effectively reached | po: 125 | po: 0.01 μM | po: 1.07 μM | 0.1 to 1 |  |  |  |
| Cc1cc(C)c(S(=O)(=O)N(Cc2ccc(-c3cccc(C(C)(C)C(=O)O)c3)cc2)Cc2ccc(C(F)(F)F)o2)c(C)c1 [7/5] | < 0.1 | effectively reached | po: 18 | po: 300 ng/mL | po: 5398 ng/mL | < 0.1 |  |  |  |
| Cc1cc(C)c(S(=O)(=O)N(Cc2ccc(-c3cccc(CC(=O)O)c3)cc2)C(C)c2ccc(C(F)(F)F)o2)c(C)c1 (centres unmarked) [2/2] | < 0.1 |  |  |  |  | < 0.1 |  |  |  |
| Cc1cc(C)c(S(=O)(=O)N(Cc2ccc(-c3cc(F)c(CO)c(S(C)(=O)=O)c3)cc2)Cc2ccc(C(F)(F)F)o2)c(C)c1 [Example C3/2] | < 0.1 |  | po: 0.56 | po: 115 ng/mL | po: 64 ng/mL | < 0.1 |  |  |  |
| COc1cc(-c2cccc(C(C)(C)C(=O)O)c2)ccc1CN(Cc1ccc(C(F)(F)F)o1)S(=O)(=O)c1c(C)cc(C)cc1C [10/4] | < 0.1 | effectively reached | po: 11 | po: 189 ng/mL | po: 2136 ng/mL | < 0.1 |  |  |  |
| Cc1cc(C)c(S(=O)(=O)N(Cc2ccc(-c3cccc(S(=O)(=O)C(C)(C)C(=O)O)c3)cc2)Cc2ccc(C(F)(F)F)o2)c(C)c1 [5/2] | 0.1 to 1 |  |  |  |  | 0.1 to 1 |  |  |  |
